Experimental data taken from ChEMBL document CHEMBL2029348, “Synthesis, biological evaluation, and molecular docking studies of N,1,3-triphenyl-1H-pyrazole-4-carboxamide derivatives as anticancer agents” (Bioorg Med Chem Lett, 2012).
pIC50: −log10 of the molar value. Calls of active or inactive are those of the source. The rule behind the calls is not given here.

Key:
Aurora kinase A = biological target: T1, Aurora kinase A (Homo sapiens, UniProt O14965); experiment: Inhibition of human recombinant Aurora A kinase using biotinylated peptide substrate preincubated for 15 mins with compound measured after 30 mins by fluorescence analysis
T1 sequence (O14965 whole entry): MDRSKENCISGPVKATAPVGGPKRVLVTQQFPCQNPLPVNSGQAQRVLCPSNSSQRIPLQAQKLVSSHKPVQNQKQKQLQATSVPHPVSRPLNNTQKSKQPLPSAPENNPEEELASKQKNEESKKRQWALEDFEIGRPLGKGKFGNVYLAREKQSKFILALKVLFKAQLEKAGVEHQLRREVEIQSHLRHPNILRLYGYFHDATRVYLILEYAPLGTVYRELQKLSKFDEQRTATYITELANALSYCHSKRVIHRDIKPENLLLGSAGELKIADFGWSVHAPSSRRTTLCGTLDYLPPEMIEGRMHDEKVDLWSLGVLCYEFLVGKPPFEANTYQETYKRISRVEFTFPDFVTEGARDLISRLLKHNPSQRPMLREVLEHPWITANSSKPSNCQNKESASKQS

HCT-116 = experiment: Cytotoxicity against human HCT116 cells after 48 hrs by MTT assay; format: functional, cell-based; details: HCT-116, 48 h
MCF7 = experiment: Cytotoxicity against human MCF7 cells after 48 hrs by MTT assay; format: functional, cell-based; details: MCF7, 48 h
[1] = biological target: T2, Aurora kinase A (Homo sapiens) (UniProt O14965); experiment: Inhibition of Aurora A kinase in human HCT116 cells at 0.5 to 2 uM by Western blot analysis; format: cell-based; details: HCT-116
T2 sequence (whole entry): T1 sequence (O14965 whole entry)

| pIC50 (Aurora kinase A) | inhibition [1] | SMILES | pIC50 (HCT-116) | pIC50 (MCF7) |
| --- | --- | --- | --- | --- |
| 5.63 |  | O=C(Nc1ccccc1)c1cn(-c2ccccc2)nc1-c1ccccc1 | 5.64 | 5.63 |
| 6.10 |  | COc1ccc(NC(=O)c2cn(-c3ccccc3)nc2-c2ccc([N+](=O)[O-])cc2)cc1 | 5.99 | 5.92 |
| 5.58 |  | Cc1ccc(-c2nn(-c3ccccc3)cc2C(=O)Nc2ccccc2)cc1 | 5.63 | 5.61 |
| 6.08 |  | COc1ccc(NC(=O)c2cn(-c3ccccc3)nc2-c2ccc(Cl)cc2)cc1 | 5.88 | 5.81 |
| 5.88 |  | COc1ccc(NC(=O)c2cn(-c3ccccc3)nc2-c2ccccc2)cc1 | 5.87 | 5.77 |
| 6.80 | Active | CCOc1ccc(NC(=O)c2cn(-c3ccccc3)nc2-c2ccc([N+](=O)[O-])cc2)cc1 | 6.41 | 6.34 |
| 5.84 |  | COc1ccc(NC(=O)c2cn(-c3ccccc3)nc2-c2ccc(C)cc2)cc1 | 5.84 | 5.79 |
| 5.24 |  | O=C(Nc1ccc(Br)cc1)c1cn(-c2ccccc2)nc1-c1ccc(Cl)cc1 | 5.36 | 5.27 |
|  |  | Cc1cc(Nc2cc(N3CCN(C)CC3)nc(Sc3ccc(NC(=O)C4CC4)cc3)n2)n[nH]1 [TOZASERTIB] |  | 6.42 |
| 6.19 |  | CCOc1ccc(NC(=O)c2cn(-c3ccccc3)nc2-c2ccc(C)cc2)cc1 | 6.11 | 5.99 |
| 5.68 |  | O=C(Nc1ccccc1)c1cn(-c2ccccc2)nc1-c1ccc([N+](=O)[O-])cc1 | 5.70 | 5.65 |
| 6.11 |  | CCOc1ccc(NC(=O)c2cn(-c3ccccc3)nc2-c2ccc(OC)cc2)cc1 | 6.01 | 5.96 |
| 6.38 |  | CCOc1ccc(NC(=O)c2cn(-c3ccccc3)nc2-c2ccccc2)cc1 | 6.21 | 6.06 |
| 5.50 |  | O=C(Nc1ccc(Cl)cc1)c1cn(-c2ccccc2)nc1-c1ccc(Cl)cc1 | 5.52 | 5.43 |
| 5.56 |  | COc1ccc(-c2nn(-c3ccccc3)cc2C(=O)Nc2ccccc2)cc1 | 5.60 | 5.60 |
| 5.14 |  | O=C(Nc1ccc(Br)cc1)c1cn(-c2ccccc2)nc1-c1ccccc1 | 5.35 | 5.24 |
| 5.68 |  | O=C(Nc1ccccc1)c1cn(-c2ccccc2)nc1-c1ccc(Cl)cc1 | 5.66 | 5.63 |
| 5.45 |  | O=C(Nc1ccc(Cl)cc1)c1cn(-c2ccccc2)nc1-c1ccccc1 | 5.45 | 5.41 |
| 5.14 |  | Cc1ccc(-c2nn(-c3ccccc3)cc2C(=O)Nc2ccc(Br)cc2)cc1 | 5.27 | 5.22 |
| 5.25 |  | COc1ccc(-c2nn(-c3ccccc3)cc2C(=O)Nc2ccc(Cl)cc2)cc1 | 5.39 | 5.36 |
| 5.79 |  | COc1ccc(NC(=O)c2cn(-c3ccccc3)nc2-c2ccc(OC)cc2)cc1 | 5.82 | 5.75 |
| 5.26 |  | O=C(Nc1ccc(Br)cc1)c1cn(-c2ccccc2)nc1-c1ccc([N+](=O)[O-])cc1 | 5.39 | 5.28 |
| 5.32 |  | Cc1ccc(-c2nn(-c3ccccc3)cc2C(=O)Nc2ccc(Cl)cc2)cc1 | 5.41 | 5.40 |
| 5.52 |  | O=C(Nc1ccc(Cl)cc1)c1cn(-c2ccccc2)nc1-c1ccc([N+](=O)[O-])cc1 | 5.53 | 5.49 |
| 6.66 |  | CCOc1ccc(NC(=O)c2cn(-c3ccccc3)nc2-c2ccc(Cl)cc2)cc1 | 6.38 | 6.25 |
| 4.91 |  | COc1ccc(-c2nn(-c3ccccc3)cc2C(=O)Nc2ccc(Br)cc2)cc1 | 5.23 | 5.09 |
